“Also recorded” adds a separate entry of the source. Where two headings read alike, the source gives them in different places. Marks after values point to notes of the source that are not given here.
Legend:
[1] = molecular target: T1, CIMPR (Homo sapiens, UniProt P11717); assay: CIMPR affinity chromatography (bound vs unbound rhGAA by GAA activity); type: binding
From the text: Multiple batches of the rhGAA according to the disclosure were produced in shake flasks and in perfusion bioreactors using CHO cell line GA-ATB200, the product of which is referred to as “ATB200.” Weak anion exchange (“WAX”) liquid chromatography was used to fractionate ATB200 rhGAA according to terminal phosphate and sialic acid. Elution profiles were generated by eluting the ERT with increasing amount of salt. The profiles were monitored by UV (A280 nm).
To evaluate the ability of the conventional rhGAAs in MYOZYME® and LUMIZYME® to interact with the CIMPR, the two conventional rhGAA preparations were injected onto a CIMPR affinity column (which binds rhGAA having M6P groups) and the flow through collected. The bound material was eluted with a free M6 gradient. Fractions were collected in 96-well plate and GAA activity assayed by 4MU-α-glucosidase substrate. The relative amounts of unbound (flow through) and bound (M6P eluted) rhGAA were determined based on GAA activity and reported as the fraction of total enzyme. […] Indeed, only 27% of the rhGAA in MYOZYME® and 22% of the rhGAA in LUMIZYME® contained M6P that can be productive to target it to the CIMPR on muscle cells.

[2] = system: single fibers isolated from the white gastrocnemius of Gaa KO mice; assay: Single fiber analysis (LAMP1/LC3 co-immunofluorescence); type: in vivo
From the text: FIG. 17 depicts co-immunofluorescent staining of LAMP1 (green) (see for example, “B”) and LC3 (red) (see, for example, “A”) in single fibers isolated from the white gastrocnemius of Gaa KO mice treated with a vehicle, alglucosidase alfa, or ATB200. “C” depicts clearance of autophagic debris and absence of enlarged lysosome. A minimum of 30 fibers were examined from each animal.
As a result, a significant portion of muscle fibers analyzed (36-60%) from ATB200-treated mice appeared normal or near-normal.

[3] = molecular target: T1, CIMPR; assay: CIMPR plate binding assay
Procedure: In addition to having a greater percentage of rhGAA that can bind to the CIMPR, it is important to understand the quality of that interaction. LUMIZYME® and ATB200 receptor binding was determined using a CIMPR plate binding assay. Briefly, CIMPR-coated plates were used to capture GAA. Varying concentrations of rhGAA were applied to the immobilized receptor and unbound rhGAA was washed off. The amount of remaining rhGAA was determined by GAA activity. […] For LUMIZYME®, there is on average only 10% of molecules having a bis-phosphorylated N-glycan. In contrast, on average every rhGAA molecule in ATB200 has at least one bis-phosphorylated N-glycan.
N-glycan analysis via MALDI-TOF mass spectrometry confirmed that on average each ATB200 molecule contains at least one natural bis-M6P N-glycan structure.

[4] = clinical; conditions: human, in vivo
Procedure: At 10Y7M of age, the blood of the patient was collected to gather pharmacokinetic (PK) data for their treatment that included weekly administration of 20 mg/kg ATB200 and 130 mg AT2221.
Blood sampling of the patient was conducted to gather pharmacokinetic (PK) data for their treatment that included administration of 25 mg/kg ATB200 and 195 mg AT2221 biweekly.
At 12Y5M of age, the patient has been receiving ATB200 (20 mg/kg) and AT2221 (195 mg) biweekly for 1 year. […] At this time, the PK levels of both ATB200 and AT2221 were taken from the patient.

[5] = Thermostability assay using SYPRO Orange; type: physicochemical
Procedure: The stability of ATB200 in acidic or neutral pH buffers was evaluated in a thermostability assay using SYPRO Orange, as the fluorescence of the dye increases when proteins denature. […] As summarized in Table 10, the addition of miglustat increased the melting temperature (Tm) of ATB200 by nearly 10° C.

[6] = system: pediatric IOPD patient; conditions: for LVEF / LVMI: 2 D
[7] = system: normal and Pompe fibroblast cell lines; assay: Cellular uptake of rhGAA (internalized GAA by 4MU-α-Glucoside hydrolysis); type: cell-based
Procedure: The relative cellular uptake of ATB200 and LUMIZYME® rhGAA were compared using normal and Pompe fibroblast cell lines. Comparisons involved 5-100 nM of ATB200 according to the disclosure with 10-500 nM conventional rhGAA product LUMIZYME®. After 16-hr incubation, external rhGAA was inactivated with TRIS base and cells were washed 3-times with PBS prior to harvest. Internalized GAA measured by 4MU-α-Glucoside hydrolysis and was graphed relative to total cellular protein and the results appear in FIGS. 11A-11C.
ATB200 was also shown to be efficiently internalized into cells. […] ATB200 saturates cellular receptors at about 20 nM, while about 250 nM of LUMIZYME® is needed to saturate cellular receptors.

T1 sequence (P11717 41-2491, species assumed): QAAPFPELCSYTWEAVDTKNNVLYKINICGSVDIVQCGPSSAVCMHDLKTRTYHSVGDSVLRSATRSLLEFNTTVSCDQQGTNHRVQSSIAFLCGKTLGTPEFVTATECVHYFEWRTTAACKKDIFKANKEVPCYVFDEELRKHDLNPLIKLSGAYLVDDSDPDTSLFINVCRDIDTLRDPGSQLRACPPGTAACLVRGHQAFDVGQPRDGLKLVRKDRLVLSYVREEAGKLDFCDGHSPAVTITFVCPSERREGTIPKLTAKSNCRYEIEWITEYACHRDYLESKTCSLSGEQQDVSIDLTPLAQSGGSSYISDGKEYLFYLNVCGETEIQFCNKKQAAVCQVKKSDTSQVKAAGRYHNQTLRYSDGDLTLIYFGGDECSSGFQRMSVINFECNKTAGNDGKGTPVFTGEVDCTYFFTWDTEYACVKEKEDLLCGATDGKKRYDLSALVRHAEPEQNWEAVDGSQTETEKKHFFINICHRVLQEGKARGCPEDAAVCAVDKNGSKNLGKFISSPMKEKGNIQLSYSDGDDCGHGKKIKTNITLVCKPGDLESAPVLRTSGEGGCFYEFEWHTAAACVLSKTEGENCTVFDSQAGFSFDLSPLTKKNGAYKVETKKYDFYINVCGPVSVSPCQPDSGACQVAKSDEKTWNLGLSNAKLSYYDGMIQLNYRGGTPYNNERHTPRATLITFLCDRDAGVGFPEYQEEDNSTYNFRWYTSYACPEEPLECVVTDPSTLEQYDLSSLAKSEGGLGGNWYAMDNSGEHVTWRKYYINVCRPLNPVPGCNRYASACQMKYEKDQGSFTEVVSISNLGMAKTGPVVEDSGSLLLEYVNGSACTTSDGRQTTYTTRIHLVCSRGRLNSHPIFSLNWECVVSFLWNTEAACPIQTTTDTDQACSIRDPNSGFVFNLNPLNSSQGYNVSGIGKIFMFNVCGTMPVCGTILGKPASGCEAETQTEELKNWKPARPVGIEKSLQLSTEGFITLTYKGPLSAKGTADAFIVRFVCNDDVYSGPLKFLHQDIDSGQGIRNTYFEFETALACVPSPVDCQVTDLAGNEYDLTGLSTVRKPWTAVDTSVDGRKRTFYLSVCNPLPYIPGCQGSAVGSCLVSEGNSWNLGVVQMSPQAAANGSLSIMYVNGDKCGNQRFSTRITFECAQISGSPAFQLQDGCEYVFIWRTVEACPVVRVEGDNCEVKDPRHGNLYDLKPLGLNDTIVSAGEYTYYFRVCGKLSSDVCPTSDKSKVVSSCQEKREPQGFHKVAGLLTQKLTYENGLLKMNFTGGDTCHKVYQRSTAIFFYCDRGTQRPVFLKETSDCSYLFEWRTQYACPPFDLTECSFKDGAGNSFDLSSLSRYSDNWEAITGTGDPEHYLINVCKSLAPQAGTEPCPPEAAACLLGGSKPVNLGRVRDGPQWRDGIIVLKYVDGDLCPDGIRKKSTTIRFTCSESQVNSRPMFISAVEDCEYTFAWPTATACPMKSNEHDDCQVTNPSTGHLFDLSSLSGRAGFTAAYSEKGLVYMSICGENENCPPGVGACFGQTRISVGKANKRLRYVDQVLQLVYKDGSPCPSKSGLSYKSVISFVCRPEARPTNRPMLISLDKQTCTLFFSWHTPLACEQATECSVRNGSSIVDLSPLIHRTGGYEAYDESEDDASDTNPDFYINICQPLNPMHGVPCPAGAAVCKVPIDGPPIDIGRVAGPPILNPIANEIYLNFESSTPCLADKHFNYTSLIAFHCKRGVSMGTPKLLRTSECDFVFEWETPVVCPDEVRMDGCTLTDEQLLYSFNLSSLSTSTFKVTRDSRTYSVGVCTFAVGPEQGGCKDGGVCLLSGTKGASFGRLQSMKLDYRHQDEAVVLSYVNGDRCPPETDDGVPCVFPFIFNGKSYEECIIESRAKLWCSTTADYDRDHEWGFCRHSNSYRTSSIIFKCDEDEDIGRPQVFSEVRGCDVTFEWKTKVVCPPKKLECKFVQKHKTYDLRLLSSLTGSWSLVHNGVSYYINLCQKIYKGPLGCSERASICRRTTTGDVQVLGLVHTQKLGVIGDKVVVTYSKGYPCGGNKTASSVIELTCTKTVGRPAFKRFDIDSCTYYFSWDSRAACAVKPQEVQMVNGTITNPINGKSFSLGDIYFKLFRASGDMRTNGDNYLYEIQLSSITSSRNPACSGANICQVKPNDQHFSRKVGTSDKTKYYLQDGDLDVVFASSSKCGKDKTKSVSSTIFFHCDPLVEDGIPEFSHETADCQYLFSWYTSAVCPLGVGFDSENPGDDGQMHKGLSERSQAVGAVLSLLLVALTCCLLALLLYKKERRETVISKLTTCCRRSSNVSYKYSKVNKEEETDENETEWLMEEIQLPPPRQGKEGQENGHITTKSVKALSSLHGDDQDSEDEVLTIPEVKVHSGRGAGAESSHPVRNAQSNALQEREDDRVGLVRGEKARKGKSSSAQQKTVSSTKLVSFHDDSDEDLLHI

With “ATB200: recombinant human acid α-glucosidase with a high content of N-glycans bearing mono-M6P and bis-M6P, produced from a GA-ATB200 cell line” the “rhGAA that binds to the CIMPR (contains M6P)” value ([1]; fraction of total enzyme by GAA activity) was “more than 70%”, the CIMPR receptor binding ([1]; purified ATB200 rhGAA from different production batches (FIG. 5)) was no less than 70% and the “Fibers with Autophagy Buildup” value [2] was 40-64%*. For the same substance, the “Fibers with Normal or Near-normal Appearance” value [2] was 36-60%, the “Lysosome Enlargement” value [2] was “dramatically decreased lysosome size; also recorded: Dramatic size” and the Kd ([3]; M6P receptor plate binding assays) was 2 to 4 nM. For the same substance, the “binding to CIMPR” value ([3]; compared with LUMIZYME (FIG. 10A)) was “significantly better”, the “AUC relative to adult percentiles” value [4] was “within the adult 10th-90th percentile” and the “Cmax relative to adult percentiles” value [4] was “within the adult 10th-90th percentile”. The Tm ([5]; pH 5.2) was 67.3 °C, the Tm ([5]; pH 7.4) was 56.2 °C and the “increase of melting temperature (Tm) by addition of miglustat” value ([5]; pH 7.4) was roughly 10 °C. It also gave a Tm ([5]; pH 7.4 + 10 μM miglustat) of 61.6 °C, a Tm ([5]; pH 7.4 + 30 μM miglustat) of 62.9 °C and a Tm ([5]; pH 7.4 + 100 μM miglustat) of 66.0 °C. For the same substance, the CK ([6]; AT2221 115 mg QW) was 1187 U/L, the Pro-BNP ([6]; AT2221 115 mg QW) was 44.29 pg/mL and the CK ([6]; ATB200 20 mg/kg QW) was 1834 U/L. The Glc4 ([6]; ATB200 20 mg/kg QW) was 41.53 mmol/mol CRE, the Pro-BNP ([6]; ATB200 20 mg/kg QW) was 36.3 pg/mL and the Pro-BNP ([6]; ATB200 20 mg/kg q2w) was 151.5 pg/mL. The Glc4 ([6]; ATB200 20 mg/kg, AT2221 130 mg) was 29.08 mmol/mol CRE, the Pro-BNP ([6]; ATB200 20 mg/kg, AT2221 130 mg) was 45.52 pg/mL and the Pro-BNP ([6]; ATB200 25 mg/kg QW) was 33.24 pg/mL. The LVEF ([6]; ATB200 25 mg/kg QW) was 60.3%, the LVMI ([6]; ATB200 25 mg/kg QW) was 43.6 g/m^2 and the CK ([6]; ATB200 30 mg/kg, AT2221 130 mg) was 1146 U/L. It also gave a Pro-BNP ([6]; ATB200 30 mg/kg, AT2221 130 mg) of 29.25 pg/mL, an LVEF ([6]; ATB200 30 mg/kg, AT2221 130 mg) of 57% and an LVMI ([6]; ATB200 30 mg/kg, AT2221 130 mg) of 39.1 g/m^2. The CK ([6]; Change AT2221 to 115 mg QW) was 1277 U/L, the CK ([6]; Change ATB200 to 20 mg/kg QW) was 1674 U/L and the Glc4 ([6]; Change ATB200 to 20 mg/kg QW) was 50.74 mmol/mol CRE. For the same substance, the LVEF ([6]; Change ATB200 to 20 mg/kg QW) was 61.1%, the LVMI ([6]; Change ATB200 to 20 mg/kg QW) was 38 g/m^2 and the CK ([6]; Change ATB200 to 25 mg/kg QW) was 1524 U/L. The Glc4 ([6]; Change ATB200 to 25 mg/kg QW) was 34.85 mmol/mol CRE, the Pro-BNP ([6]; Change ATB200 to 25 mg/kg QW) was 231.9 pg/mL and the CK ([6]; Change ATB200 to 30 mg/kg QW) was 1661 U/L. The Glc4 ([6]; Change ATB200 to 30 mg/kg QW) was 36.19 mmol/mol CRE, the Pro-BNP ([6]; Change ATB200 to 30 mg/kg QW) was 180.6 pg/mL and the CK ([6]; change to ATB200 20 mg/kg q2w) was 1393-1444 U/L. The Glc4 ([6]; change to ATB200 20 mg/kg q2w) was 32.58 mmol/mol CRE, the LVEF ([6]; change to ATB200 20 mg/kg q2w) was 41% and the LVMI ([6]; change to ATB200 20 mg/kg q2w) was 42 g/m^2. For the same substance, the “skin rash, dyspnea, cough, pale-like complexion” value ([6]; human, in vivo, 30 mg/kg) was “had not developed any skin rash, dyspnea, cough, or pale-like complexion”, the “concentration that saturates cellular receptors” value ([7]; 16-hr incubation) was “about 20 nM” and the “internalization into normal and Pompe fibroblast cells” value ([7]; compared with LUMIZYME) was “internalized to a greater degree”. For the same substance, the “uptake efficiency constant (Kuptake)” value ([7]; extrapolated, FIG. 11C) was 2-3 nm.

Source: patent US20260207717A1, “METHODS FOR TREATING INFANTILE-ONSET POMPE DISEASE IN PEDIATRIC PATIENTS” (Amicus Therapeutics, Inc., priority 2022, published 2026)
